In a melting point compilation (Tetko et al.; mined from patent text by program, amines drawn as free bases though some values may be those of a salt):

Row | melting point | SMILES
1 | 68 to 70 °C | COC(=O)C1CC(=O)N(c2cc(C(F)(F)F)cc(C(F)(F)F)c2)C1 (configuration not stated)
2 | 181 to 183 °C | NC(=O)c1ccc(C2CCCc3cncn32)cc1 (configuration not stated)
3 | 126 to 128 °C | Cc1cccc2c(-c3ccc(Br)cc3)nccc12
4 | 101 to 102 °C | Cc1sc(-c2ccccc2)nc1COc1ccc(CCCC(O)C#N)cc1 (configuration not stated)
5 | 181 to 184 °C | CCCc1ccc(C(=O)Nc2ccc3c(c2)CCC3=O)cc1
6 | 123 °C | O=C(COc1ccccc1)NC1C(=O)NC1SCC(=O)C1CCCS1 (mixture of isomers)
7 | 142 °C | CCN1C(=O)CN(c2ccccc2)C1=O
8 | 164 to 165 °C | Cn1ccnc1N1CCN(CC(=O)c2ccc(NS(C)(=O)=O)cc2)CC1
9 | 264 to 265 °C | Cc1cccc2nc(-c3cc(C(F)F)nn3-c3ccc(S(N)(=O)=O)cc3)sc12
10 | 181 °C | CCOC(=O)C1=C(N)OC(C)=C(C(C)=O)C1c1cccc([N+](=O)[O-])c1 (configuration not stated)
11 | 139 to 141 °C | COC(=O)c1cc(-c2ccccc2)c(=O)n2c1-c1cc(Cl)ccc1CC2
12 | 85 to 87 °C | CCN(CC)c1ccc2cc(N)c(=O)oc2c1
13 | 69 to 70 °C | COc1ccc(Cl)c(C)c1OC
14 | 143 to 145 °C | Cc1cc(OC23CC4CC(CC(C4)C2)C3)ccc1N
15 | 80 to 81 °C | COC(=O)CCCC(=O)c1ccc2c(c1)CCO2
16 | 138 to 140 °C | O=C(Nc1cccc([N+](=O)[O-])c1)C(=O)N1CCC(Cc2ccccc2)CC1

Continued, compound first:

Row | SMILES | melting point
17 | Cn1c(CN)nc(-c2ccncn2)cc1=O | 153 to 155 °C
18 | O=C(CCc1ccccc1)Nc1ccc(C(=O)O)c(O)c1 | 165 to 167 °C
19 | O=C(O)c1cc(I)cc2c(=O)c3ccccc3[nH]c12 | > 400 °C
20 | O=[N+]([O-])c1ccc(/C=C/c2c(F)cccc2F)cc1 | 136 to 137 °C
21 | CCC=C(NC(=O)C1CC1(C)C)C(=O)O (configuration not stated) | 154 to 156 °C
22 | C#Cc1ccc2c(c1)C(c1ccccn1)=NCc1c(C(=O)N(C)C)ncn1-2 | 193 to 194 °C
23 | FC(F)(F)c1cccc(-c2ccc3nncn3n2)c1 | 140 to 143 °C
24 | O=C(NCc1ccc(Cl)cc1)c1cn2c3c(cc(CN4CCOCC4)cc3c1=O)N=C(NCc1ccccc1)C2 | 235 to 240 °C
25 | Nc1c(-c2ccc(-c3ccc(F)cc3)cc2)nc2ccc(F)cc2c1C(=O)O | 241 to 243 °C
26 | CC(Oc1cc(-c2nn(C)c(C(F)(F)F)c2Cl)c(F)cc1Cl)C(=O)O (configuration not stated) | 150 to 151 °C
27 | CN(C)C=C1CCc2cnccc2C1=O | 76 to 79 °C
28 | C=CCN1C(=O)C(C)N(c2ccc(Oc3ccccc3)cc2)C1=S (configuration not stated) | 77 °C
29 | COc1ccc(Cc2nc3c(cnn3C(CCCc3ccccc3)C(C)O)c(=O)[nH]2)cc1OC (configuration not stated) | 85 °C
30 | CCOP(=S)(OCC)N1C(=O)c2ccccc2C1=O | 81 to 83 °C
31 | CNC(=O)c1cccc(-c2cccc3cc(Cc4cccc(C(F)(F)F)c4)sc23)c1 | 104 to 106 °C
32 | O=C(CCCCCBr)c1ccccc1 | 35 to 36 °C
33 | CSc1nc(Cl)ncc1C | 73 to 76 °C
34 | FC(F)(F)c1ccc(CN2CC3(COc4ccc(-c5ccncc5)cc43)c3ccccc32)o1 (configuration not stated) | 108 to 110 °C
35 | O=C(CC(c1ccccc1)c1ccccc1)NCO | 149 to 151 °C
36 | COc1ccc(C(=O)Nc2ccccc2)cc1NC(=S)Nc1ccc(C)cc1 | 156 to 158 °C
37 | COc1ccc(C(CC(C)(C)C(=O)O)c2ccc(Cl)cc2)cc1 (configuration not stated) | 139 to 142 °C
38 | CCCCc1nc(C(O)CC)c(C(N)=O)n1Cc1ccc(-c2ccccc2C(=O)O)cc1 (configuration not stated) | > 120 °C
39 | Nc1ccc(Cc2n[nH]c(=O)o2)cc1 | 267 to 268 °C
40 | CCCCCCCCC(O)CNCCNCC(O)CCCCCCCC (configuration not stated) | 140 to 146 °C
41 | CCn1c(-c2ccc(C(F)(F)F)cc2C(F)(F)F)nc(-c2ccncc2)c1-c1ccc(Cl)cc1 | 148 to 150 °C
42 | CCSc1nc(C)n(Cc2ccc(-c3ccccc3C(=O)O)cc2)c1CO | 250 °C
